The record followed here is US20170096629A1, “FILTRATION DEVICE AND SYSTEM” (Universite Technologie de Compiegne - UTC, priority 2009, published 2017).

The data set can be described thus: diffusion coefficient of molecules through a filtration membrane, co-current filtration system, regression of analytic model. It is filed as physicochemical. The following applies: least-squares regression of analytic model on concentration ratio versus time. The source says: Such systems may also be used for characterizing a filtration membrane 130. For example, it is possible to evaluate a diffusion coefficient of a molecule for a given membrane 130 from a physical model and measurements of concentration of the molecule in the first chamber 110 and/or the second chamber 120 versus time. The co-current system may be used for calibrating the model and estimating the diffiusion coefficient, and the countercurrent system may be used for checking the diffusion coefficient or vice versa.
In particular, the applicant modeled the time-dependent change of the concentration in the first chamber 110, in the case when a fluid to be filtered circulates in the second chamber 120, with the following equations: • in the case of a co-current flow (like in FIG. 9): […]
and • C1(t) represents the concentration in the first chamber 110 as a function of time t, • L represents the (common) length of the first and second chambers 110, 120, • b represents the (common) width of the first and second chambers 110, 120, • Qf represents the filtration flow rate, • V1 represents the volume of the first chamber 110, • V2 represents the volume of the second chamber 120, • C1o represents the initial concentration in the first chamber 110, • C1∞ represents the equilibrium concentration in the first chamber 110, • Dm represents the diffusion coefficient of the molecule to be filtered for the membrane 130, and • δ represents the thickness of the membrane.
By means of these models, it is possible to determine the values of the diffusion coefficient Dm of the molecules tested for a given membrane 130. For this, for example it is possible to operate in the co-current mode and measure the disappearance of the molecule in the second chamber 120 (and therefore its appearance in the first chamber 110).
In FIGS. 11 and 12 the change in the concentration-over-initial-concentration-in-the-second-chamber 120 ratio is illustrated versus time for given experimental conditions, for urea (FIG. 11) and vitamin B12 (FIG. 12) respectively, with several types of membrane. Moreover, the applicant has also determined this ratio for albumin (graph not shown).
The experimental results are illustrated, for an experiment with a membrane of high porosity (of the 8F type) by icons □, Δ, and for an experiment with a membrane of low porosity (of the 1 FPH type) by icons: *, ◯. A regression of the analytic model is then made for example with a minimization by least squares, in which it is possible to obtain experimentally the diffusion coefficients in (m^2/s) listed in the following table: […]

With `NC(N)=O` [Urea, urea], the “diffusion coefficient Dm” value is reported as 2 × 10^−12 m^2/s (membrane 1 FPH (low porosity)) and 2 × 10^−11 m^2/s (membrane 8F (high porosity)).
In the case of albumin, the “diffusion coefficient Dm” value is, setting by setting: (membrane 1 FPH (low porosity)) 9 × 10^−14 m^2/s; (membrane 8F (high porosity)) 2 × 10^−13 m^2/s.
With vitamin B12, the “diffusion coefficient Dm” value is 4 × 10^−13 m^2/s (membrane 1 FPH (low porosity)) and 6 × 10^−12 m^2/s (membrane 8F (high porosity)).
